Results published in patent US6927213B2, “Cationic cholesteryl derivatives containing cyclic polar groups” (University of Pittsburgh, priority 1996, dated 2005).
“Also recorded” adds a separate entry of the source. Like-named read-outs stand apart in the source and are kept apart here.

Assays:
CHO cells [1] = assay: Transfection of CHO cells with pCMV-Luc DNA:lipid complexes, luciferase activity; assay type: cell-based, Chinese Hamster; conditions: for luciferase activity (transfection activity): 1 μg pCMV-Luc DNA, liposomes DOPE:cationic lipid 1:1 mol:mol, absence of serum, 36 hours after transfection
CHO cells [2] = assay: Toxicity of lipids: protein per well 36 hours after transfection, CHO cells
CHO cells [3] = test system: CHO cells
BL6 cells [4] = assay: Transfection of BL6 cells with pCMV-Luc DNA:lipid complexes, luciferase activity; assay type: cell-based, murine; conditions: DOPE:lipid 1:1 mol:mol, FIG. 8
Procedure: (§1) 2 μmol of Lipid dissolved in chloroform was transferred to a test tube. A solution of DOPE (2 umol) in chloroform was then added to this test tube. The chloroform was evaporated by passing a stream of nitrogen through the test tube to obtain a thin film of at the bottom of the test tube. Further drying was done in a desiccator under high vacuum for 30 minutes. 2 ml of distilled water was then added to the test tubes. The test tubes were stoppered and vortexed for one minute followed by sonication until the size of the particles was between 100 to 200 nm. The size of the particles was measured by Coulter particle size analyzer.
(§2) CHO, 293 and BL6 cells were obtained from the American Type Culture Collection (ATCC). Chinese Hamster Ovarian (“CHO”) cells were maintained in F-12 nutrient medium supplemented with 10% fetal bovine serum, antibiotics (1% penicillin-streptomycin) and 1% glutamine; human embryonic kidney 293 cells and murine melanoma BL6 cells were cultured in DMEM medium supplemented with 10% fetal bovine serum, antibiotics (1% penicillin-streptomycin) and 1% glutamine. […]
(§3) Luciferase activity was assayed by measuring the luminescence obtained after adding the substrate (Promega) to in aliquot of lysate. This luminescence was measured in a luminometer for 25 seconds.

293 cells = assay: Transfection of 293 cells with pCMV-Luc DNA:lipid complexes, luciferase activity; assay type: cell-based, human; conditions: DOPE:lipid 1:1 mol:mol, FIG. 7
Procedure: as §1, §2, §3

Mice = assay: In vivo transfection with pCMV-Luc DNA:lipid complexes; conditions: intratumoral or intravenous, 30 μg pCMV-Luc DNA with 30 nmols liposomal lipid (1:1 lipid 5:DOPE), 1-5 days
Procedure: Mice are injected intratumorally or intravenously with 50 μl of solution containing pCMV-Luc DNA (30 μg) complexed with 30 nmols of liposomal lipid (1:1 mol/mol lipid 5:DOPE). Animals are sacrificed 1-5 days later and extracts from tumor tissue (intratumor injection) or lung, liver and blood (intravenous injection) are assayed for luciferase activity and protein levels.

[5] = Stability of liposomes, retention of diameter over time; assay type: physicochemical; conditions: all lipid 5:DOPE ratios shown in FIG. 11
Procedure: as §1
The X axis of FIG. 11 refers to the total liposomal lipid mixed with 1 μg pCMV-Luc DNA:lipid complexes.

CHO cells [6] = assay: Serum sensitivity of transfection of CHO cells; assay type: cell-based, Chinese Hamster; conditions: 1 μg DNA, 10% serum
Caski = assay: Transfection of Caski cells; assay type: cell-based; conditions: data not shown
Procedure: (§4) Lipid 5 was further compared with DC-Chol by transfecting BL6 cells with lipid 5- or DC-Chol-containing DNA:lipid complexes (FIGS. 7 and 8 respectively). […] Lipid 5 was also tested in several cell lines including HeLa, Siha and Caski which are somewhat difficult to transfect when compared with CHO or 293 cells.

Siha = assay: Transfection of Siha cells; assay type: cell-based; conditions: data not shown
Procedure: as §4

HeLa = assay: Transfection of HeLa cells; assay type: cell-based; conditions: data not shown
Procedure: as §4

BL6 cells [7] = assay: Toxicity of lipids: protein per well 36 hours after transfection, BL6 cells; assay type: cell-based, murine; conditions: DOPE:lipid 1:1, FIG. 10
Procedure: Toxicity was assayed by measuring the amount of protein remaining in each well 36 hours after treatment with the indicated amount of liposome.
The toxicity of lipids was assayed by measuring the protein concentration in each well by Coomassie blue reagent (Píerce) 36 hours after transfection. Greater concentrations of protein per well indicated less toxicity of the tested lipids.
FIGS. 9 and 10 show the toxicity of lipid 5 compared to that of DC-Chol in CHO and BL6 cells respectively, where toxicity was assessed by measuring the amount of protein in each well after transfection of cells with DNA:lipid complexes formulated by mixing DNA and liposomes containing DOPE and DC-Chol or DOPE and lipids.

CC(C)CCC[C@@H](C)[C@H]1CC[C@H]2[C@@H]3CC=C4C[C@@H](OC(=O)NCCN5CCNCC5)CC[C@]4(C)[C@H]3CC[C@]12C [lipid 2, 4{N-2-ethylamino[(3′-β-cholesteryl)carbamoyl]}piperazine]
luciferase activity (transfection activity) (CHO cells [1]): low activity

pyridyl (ethyl) carbamoyl cholesteryl [lipid PY]
luciferase activity (transfection activity) (CHO cells [1]): much less active | toxicity relative to DC-Chol (CHO cells [2]): comparable toxicity to DC-Chol

CC(C)CCC[C@@H](C)[C@H]1CC[C@H]2[C@@H]3CC=C4C[C@@H](OC(=O)NCCN5CCCC5)CC[C@]4(C)[C@H]3CC[C@]12C [lipid 6, {N-2-ethylamino[(3′-β-cholesteryl)carbamoyl]}pyrrolidine]
luciferase activity (transfection activity) (CHO cells [1]): less active than DC-Chol | toxicity relative to DC-Chol (CHO cells [3]): less toxic than DC-Chol

CC(C)CCC[C@@H](C)[C@H]1CC[C@H]2[C@@H]3CC=C4C[C@@H](OC(=O)NCCN5CCCCC5)CC[C@]4(C)[C@H]3CC[C@]12C [lipid 7, {N-2-ethylamino[(3′-β-cholesteryl)carbamoyl]}piperidine]
luciferase activity (transfection activity) (CHO cells [1]): less active than DC-Chol | toxicity relative to DC-Chol (CHO cells [3]): less toxic than DC-Chol

CC(C)CCC[C@@H](C)[C@H]1CC[C@H]2[C@@H]3CC=C4C[C@@H](OC(=O)NN5CCN(C)CC5)CC[C@]4(C)[C@H]3CC[C@]12C [lipid 5, N-methyl{4-N-amino[(3′-β-cholesteryl)carbamoyl]}piperazine]
luciferase activity (transfection activity) (BL6 cells [4]): almost equally as active as DC-Chol | luciferase activity (transfection activity) (293 cells): almost equally as active as DC-Chol | in vivo transfection activity (luciferase in tissue extracts) (Mice): exhibit in vivo transfection activity | luciferase activity (transfection activity) (CHO cells [1]): lipid 5>DC-Chol>lipid 4; also recorded: high activity | transfection activity (luciferase) (CHO cells [1]; lipid 5:DOPE ratio of 2:8, FIG. 11): less activity | transfection activity (luciferase) (CHO cells [1]; lipid 5:DOPE ratio of 4:6, FIG. 11): very similar transfection activities | transfection activity (luciferase) (CHO cells [1]; lipid 5:DOPE ratio of 5:5, FIG. 11): very similar transfection activities | transfection activity (luciferase) (CHO cells [1]; lipid 5:DOPE ratio of 6:4, FIG. 11): highest activity among all complexes | transfection activity (luciferase) (CHO cells [1]; lipid 5:DOPE ratio of 8:2, FIG. 11): less activity | liposome stability (retention of diameter over time) [5]: stable liposomes | appearance of transfected cells observed under microscope (CHO cells [3]): healthy | toxicity relative to DC-Chol (CHO cells [2]): reduced toxicity | toxicity: amount of protein in each well after transfection (CHO cells [2]; CHO cells, DOPE:lipid 1:1, 36 hours, FIG. 9): more protein than cells transfected with DC-Chol-containing complex | activity retained relative to the 0% serum complexes (CHO cells [6]; 5 nmol lipid 5 (1:1 with DOPE)): approximately 40% | activity retained relative to the 0% serum complexes (CHO cells [6]; 10 nmol lipid 5 (1:1 with DOPE)): approximately 40% | activity retained relative to the 0% serum complexes (CHO cells [6]; 20 nmol lipid 5 (1:1 with DOPE)): 10% | ability to transfect cells (Caski): slightly better than DC-Chol | ability to transfect cells (Siha): slightly better than DC-Chol | ability to transfect cells (HeLa): slightly better than DC-Chol | toxicity: amount of protein in each well after transfection (BL6 cells [7]): more protein than cells transfected with DC-Chol-containing complex

CC(C)CCC[C@@H](C)[C@H]1CC[C@H]2[C@@H]3CC=C4C[C@@H](OC(=O)NCCCN5CCOCC5)CC[C@]4(C)[C@H]3CC[C@]12C [lipid 4]
luciferase activity (transfection activity) (CHO cells [1]): lipid 5>DC-Chol>lipid 4; also recorded: reasonable activity

CC(C)CCC[C@@H](C)[C@H]1CC[C@H]2[C@@H]3CC=C4C[C@@H](OC(=O)NCCN5CCOCC5)CC[C@]4(C)[C@H]3CC[C@]12C [lipid 3, {N-2-ethylamino[(3′-β-cholesteryl)carbamoyl]}morpholine]
luciferase activity (transfection activity) (CHO cells [1]): low activity

CC(C)CCC[C@@H](C)[C@H]1CC[C@H]2[C@@H]3CC=C4C[C@@H](OC(=O)NCCN(C)C)CC[C@]4(C)[C@H]3CC[C@]12C [DC-Chol, 3β [N-(N′,N′-dimethylaminoethane)carbamoyl] cholesterol, reference compound]
luciferase activity (transfection activity) (CHO cells [1]): lipid 5>DC-Chol>lipid 4 | appearance of transfected cells observed under microscope (CHO cells [2]; cell line (CHO or BL6) not specified, data not shown): some necrosis

(imidazole) propyl carbamoyl cholesteryl [lipid IM]
luciferase activity (transfection activity) (CHO cells [1]): slightly less active than DC-Chol
